The text below walks through data of ChEMBL document CHEMBL3853344, “A druggable target for rescuing microRNA defects” (Bioorg Med Chem Lett, 2016).

Experiment [1] has as its system T1, Translin-associated protein X (Homo sapiens), Q99598 [E126A].
T1 sequence (whole entry): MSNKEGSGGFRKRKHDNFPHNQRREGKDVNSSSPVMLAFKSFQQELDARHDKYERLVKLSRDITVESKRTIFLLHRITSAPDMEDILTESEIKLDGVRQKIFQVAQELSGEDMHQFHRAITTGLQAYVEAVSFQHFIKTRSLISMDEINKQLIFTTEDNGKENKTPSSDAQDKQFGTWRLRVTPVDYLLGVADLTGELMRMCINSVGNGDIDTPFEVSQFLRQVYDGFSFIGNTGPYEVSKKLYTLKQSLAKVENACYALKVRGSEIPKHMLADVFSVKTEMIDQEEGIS
The experiment is described as follows: Inhibition of wild type His-tagged translin/trax E126A mutant (unknown origin) coexpressed in Escherichia coli BL21 cells using RNase Alert as substrate at 30 uM incubated for 10 mins prior to substrate addition monitored over 60 mins by fluorescence assay.

Experiment [2] deals with Translin-associated protein X (Homo sapiens, UniProt Q99598, E126A). The experiment in a line: Inhibition of wild type His-tagged translin/trax E126A mutant (unknown origin) coexpressed in Escherichia coli BL21 cells assessed as reduction in pre-miRNA degradation by gel electrophoresis assay.
For experiment [3], the system named is T1, Translin-associated protein X (Homo sapiens), Q99598 [E126A]. The experiment is described as follows: Inhibition of wild type His-tagged translin/trax E126A mutant (unknown origin) coexpressed in Escherichia coli BL21 cells assessed as increase in Dicer-mediated 5'-gamma32P-ATP labeled pre-miRNA processing at 5 uM after 15 mins by gel electrophoresis assay.

Active and inactive are the calls of the source. The calls are words filed in the database; no cut-off is given here.

For orientation: inhibition means the drop in the measured response relative to a control, in per cent. As a reminder, the IC50 is the midpoint of a concentration-inhibition curve.

Regarding `O=c1c(O)c(-c2ccc(O)c(O)c2)oc2cc(O)cc(O)c12`, the inhibition in experiment [1] was found to be 58%.
With `Oc1cc(O)c2c(c1)O[C@H](c1cc(O)c(O)c(O)c1)[C@H](O)C2`, in experiment [1], the inhibition is 68%.
Same read-out and setting: the figure for `O=c1c(O)cc(C2Oc3cc(O)cc(O)c3CC2O)cc2cc(O)c(O)c(O)c12` (stereo unspecified) is 75%.
Consider `O=C(Oc1cc(O)cc2c1C[C@@H](OC(=O)c1cc(O)c(O)c(O)c1)[C@@H](c1cc(O)c(O)c(O)c1)O2)c1cc(O)c(O)c(O)c1`, for which the inhibition in experiment [1] came to 83%.
As for `O=c1oc2c(O)c(O)cc3c(=O)oc4c(O)c(O)cc1c4c23` [ELLAGIC ACID], in experiment [2], the IC50 is 3.5 µM. The inhibition in experiment [1] came to 94%. The inhibition result in experiment [3] is “Active”.
As for `CCCCC(CC)CNC(=N)NC(=N)NCCCCCCNC(=N)NC(=N)NCC(CC)CCCC` (stereo unspecified), the inhibition in experiment [1] was 103%.
Still for that read-out and setting: the figure for `COc1cc(C)c2c(c1C=O)Oc1c(c(C)c(O)c3c1C(O)OC3=O)OC2=O` (stereo unspecified) is 58%; for `Oc1cc2c(cc1O)[C@@H]1c3ccc(O)c(O)c3OC[C@]1(O)C2` it is 63%; for `CCCCCCCCCCCCCCCC[n+]1ccccc1` it is 56%.
As to `CCCCCCCCCCCCCCCCC(C(=O)O)C(O)(CC(=O)O)C(=O)O` (stereo unspecified), in experiment [1], the inhibition was 58%.
With `O=C(O[C@@H]1Cc2c(O)cc(O)cc2O[C@@H]1c1cc(O)c(O)c(O)c1)c1cc(O)c(O)c(O)c1`, in experiment [1], the inhibition came to 88%.
The same measure, in the same setting: the figure for `O=c1c(-c2cc(O)c(O)c(O)c2)coc2cc(O)c(O)c(O)c12` is 78%; for `CC(C)(O/N=C(\C(=O)N[C@@H]1C(=O)N2C(C(=O)[O-])=C(C[n+]3ccccc3)CS[C@H]12)c1csc(N)n1)C(=O)O` it is 100%; for `O=S(=O)(O)c1cc(N=C=S)ccc1/C=C/c1ccc(N=C=S)cc1S(=O)(=O)O` it is 103%.
Consider `O=C(OC[C@H]1O[C@@H](OC(=O)c2cc(O)c(O)c(OC(=O)c3cc(O)c(O)c(O)c3)c2)[C@H](OC(=O)c2cc(O)c(O)c(OC(=O)c3cc(O)c(O)c(O)c3)c2)[C@@H](OC(=O)c2cc(O)c(O)c(OC(=O)c3cc(O)c(O)c(O)c3)c2)[C@@H]1OC(=O)c1cc(O)c(O)c(OC(=O)c2cc(O)c(O)c(O)c2)c1)c1cc(O)c(O)c(OC(=O)c2cc(O)c(O)c(O)c2)c1`, for which the inhibition in experiment [1] came to 103%.
Still for that read-out and setting: as for `Oc1c(Cl)cc(Cl)c(Cl)c1Cc1c(O)c(Cl)cc(Cl)c1Cl`, the figure is 66%.
As to `Cc1cc(O)c(C=O)c2c1C(=O)Oc1c(C)c(O)c3c(c1O2)C(O)OC3=O` (stereo unspecified), in experiment [1], the inhibition came to 66%.
Still for that read-out and setting: as for `O=C1C(O)=C(O)C(=O)C(O)=C1O`, the figure is 66%.
Same read-out and setting: the figure for `Cc1ccc(C(=O)Nc2ccc(S(=O)(=O)O)c3cc(S(=O)(=O)O)cc(S(=O)(=O)O)c23)cc1NC(=O)c1cccc(NC(=O)Nc2cccc(C(=O)Nc3cc(C(=O)Nc4ccc(S(=O)(=O)O)c5cc(S(=O)(=O)O)cc(S(=O)(=O)O)c45)ccc3C)c2)c1` is 61%.
